Experimental data: patent publication US5783568A, “Methods for treating cancer and other cell proliferative diseases” (Sugen, Inc., priority 1994, dated 1998)
Entries after “also recorded” stand apart in the source; their conditions may differ.

Experiments:
[1] = system: sFGFR (soluble extracellular domain of FGFR2 (bek)); assay: Isothermal titration calorimetry, aFGF binding to sFGFR; set-up: species or system human; settings: ITC
Excerpt: A plasmid encoding the extracellular, ligand-binding domain of human FGFR2 (residues 1-355) was constructed using standard oligonucleotide-directed mutagenesis (Amersham) to introduce a translational termination codon immediately prior to the beginning of the single transmembrane domain of the receptor (Dionne et al., 1990). BamHI and SacII restriction sites were introduced 3' to the new termination codon. An XbaI-SacII fragment was isolated from the replicative form (RF) of this M13 mutagenesis product, filled in using T4 DNA polymerase (Boehringer-Mannheim) and inserted into the SmaI site of the expression vector pCVN (Dionne et al., 1990). This expression vector, which contains both the neomycin resistance and the dihydrofolate reductase genes for selection and amplification, was transfected into CHO cells following published procedures. Wigler et al., 1979, Cell 16:777-785.
The binding of aFGF to sFGFR was studied using the technique of isothermal titration calorimetry (ITC). In this technique the heat liberated (or absorbed) upon binding is monitored as small aliquots of ligand are added sequentially to a solution of the receptor at known concentration, which is maintained at constant temperature. […]

[2] = system: sFGFR; assay: aFGF/sFGFR/heparin complex formation by non-denaturing PAGE; format: binding, human; settings: aFGF alone or heparin alone
Protocol: aFGF, heparin or a mixture of aFGF and heparin were added to sFGFR. Free aFGF and sFGFR were separated from the complexes by gel-filtration, and fractions containing the complexes were analyzed by non-denaturing PAGE. Proteins were visualized by staining with Coomasie Brilliant blue. Various oligomerization states of aFGF/sFGFR are detected only in the presence of heparin.
aFGF alone, or a pre-incubated mixture of heparin and aFGF (molar ratio 1:10) was added to a solution containing sFGFR. The mixtures were then incubated for 20 min at room temperature in 20 mM Hepes pH 7.5, 200 mM NaCl. Size-exclusion chromatography, using a Superose 12 column (Pharmacia), was then employed to separate free aFGF and sFGFR from the complex that formed. Fractions containing the isolated complexes were pooled, and analyzed by non-denaturing PAGE (4-15% gradient gels), using the Phastsystem (Pharmacia). Gels were stained with Coomassie Blue. In the case of the sFGFR/heparin mixture (FIG. 4, lane 2), heparin was simply added to the sFGFR solution prior to electrophoresis.
The requirement of both heparin and aFGF for the induction of sFGFR dimerization was also confirmed in a second experimental system. sFGFR was incubated with aFGF alone, or with aFGF plus heparin.

Substance: heparin
- effect of heparin on the aFGF/sFGFR binding parameters ([1]; sFGFR titrated into mixture of heparin and aFGF): no effect upon the binding parameters could be detected; also recorded: does not detectably affect the interaction; also recorded: does not influence the affinity of the aFGF/sFGFR interaction
- mobility of sFGFR in non-denaturing PAGE [2]: no significant effect upon the migration of sFGFR

Substance: aFGF: aFGF was expressed in E. coli and purified by binding to a heparin-sepharose column
- Kd ([1]; single class of binding sites, mean ± SD of three experiments, no added heparin): 528 ± 173 nM
- mobility of sFGFR in non-denaturing PAGE [2]: reduced slightly
